What was measured:
tea = experiment: Amount of polyphenol in tealeaf after ALA treatment (HPLC); format: in vivo, tea (Camelliaceae, genus camellia, race Yabukita); conditions: 3 ppm
Method: (§1) Two containers (length: 0.75 m, width 0.5 m) were provided and soil was placed in each of them. A Chemical fertilizer (nitrogen content:phosphorus content:potassium content=15:15:15 as mass ratio) was used as a base fertilizer and young plants of green pepper (Solanaceae, genus cayenne, race Miogi) were grown for two months according to a conventional method. Water was applied to the young plants once a day by means of a sprinkling can. Prior to one month from harvest, treatment was conducted once a week with 50 mL per container of each aqueous solution containing 0 ppm (control) or 1 ppm of 5-aminolevulinic acid hydrochloride to which a spreading agent, Approach BI (manufactured by Kao Corporation) had been added in a ratio of 0.1% by mass. After harvest, 3 g of green pepper was finely cut with scissors and a kitchen knife and then homogenized after addition of water. The homogenized one was diluted up to 6 mL with distilled water (stock solution) and the stock solution was divided into three even portions and used in the following extraction methods (1) to (3). (1) Three mL of ethyl acetate was added to 2 mL of the stock solution and the resultant one was centrifuged at 3000 rpm for 10 minutes. The supernatant was transferred to a spit tube and was evaporated to dryness with nitrogen gas while the tube was immersed in a warm bath at about 60° C. Thereto were added 200 μL of methanol and 100 μL of distilled water, thereby the volume being made 300 μL. (2) Two mL of methanol was added to 2 mL of the stock solution and the resultant one was centrifuged at 3000 rpm for 10 minutes. The supernatant was transferred to a spit tube and was evaporated to dryness with nitrogen gas while the tube was immersed in a warm bath at about 60° C. Thereto were added 200 μL of methanol and 100 μL of distilled water, thereby the volume being made 300 μL. (3) One mL of 0.1N hydrochloric acid was added to 2 mL of the stock solution and the resultant one was transferred to a plastic tube and kept in a drive-lock bath at 96.5° C. for 1 hour to effect hydrolysis. Five mL of ethyl acetate was added thereto and the resultant one was centrifuged at 3000 rpm for 10 minutes. The supernatant was transferred to a spit tube and was evaporated to dryness with nitrogen gas while the tube was immersed in a warm bath at about 60° C. Thereto were added 200 μL of methanol and 100 μL of distilled water, thereby the volume being made 300 μL. The samples from (1) to (3) were measured by high-performance liquid chromatography (HPLC) (analytical conditions: the measurement was performed at a flow rate of 1.0 mL/min at a column temperature of 40° C. using a wavelength of 350 nm, using Liquid A (80% by volume of methanol/5% by volume of acetic acid) or Liquid B (10% by volume of methanol/5% by volume of acetic acid) as an eluent, and using a column of Hichrom5C18, T898, 4.6 mm×[…] (manufactured by LLOYD′S REGISTER QUALITY COMPANY) and each concentration was calculated based on standard solutions. In Table 1, the most highly extracted value was cited among the results measured with each of the extraction methods (1) to (3). Moreover, the sum of individual concentration of polyphenol used in this time was regarded as the total amount of polyphenol.
Prior to 210 days from harvest, treatment to tea (Camelliaceae, genus camellia, race Yabukita) grown in a production farm field was conducted once a month with a spraying amount of 100 L/tan of each aqueous solution containing 0 ppm (control) or 3 ppm of 5-aminolevulinic acid hydrochloride. After harvest, the content of polyphenol was analyzed by HPLC in the same manner as in Example 1.

pear = experiment: Amount of polyphenol in pear after ALA treatment (HPLC); format: in vivo, pear (Rosaceae, genus pear, race Kosui); conditions: 3 ppm
Method: as §1
Prior to 150 days from harvest, treatment to pear
([…], genus pear, race Kosui) grown in a production farm field was conducted once a fortnight with a spraying amount of 300 L/tan of each aqueous solution containing 0 ppm (control) or 3 ppm of 5-aminolevulinic acid hydrochloride to which a spreading agent, Approach BI (manufactured by Kao Corporation) had been added in a ratio of 0.1% by mass. After harvest, the content of polyphenol was analyzed by HPLC in the same manner as in Example 1.

green soybean = experiment: Amount of polyphenol in green soybean after ALA treatment (HPLC); format: in vivo, green soybean (Lagminosae, genus soybean, race Hakusan); conditions: 1 ppm, 100 L/tan once a fortnight after flowering
Method: as §1
Prior to 210 days from harvest, treatment to green soybean (Lagminosae, genus soybean, race Hakusan) grown in a production farm field was conducted once a fortnight after flowering with a spraying amount of 100 L/tan of each aqueous solution containing 0 ppm (control) or 1 ppm of 5-aminolevulinic acid hydrochloride. After harvest, the content of polyphenol was analyzed by HPLC in the same manner as in Example 1.

[1] = 100 L/tan once a month from 210 days before harvest, HPLC
[2] = 300 L/tan once a fortnight from 150 days before harvest, HPLC

## Cl.NCC(=O)CCC(=O)O [ALA, 5-aminolevulinic acid hydrochloride]
tea; [1]
  Apigenin amount in tealeaf: 915 ng/g
  Caffeic acid amount in tealeaf: 0 ng/g
  Chlorogenic acid amount in tealeaf: 3474 ng/g
  Ferulic acid amount in tealeaf: 17172 ng/g
  Hesperetin amount in tealeaf: 25887 ng/g
  Isorhamnetin amount in tealeaf: 3881 ng/g
  Kaempferol amount in tealeaf: 970 ng/g
  Luteolin amount in tealeaf: 2181 ng/g
  Quercetin amount in tealeaf: 8249 ng/g
  Rutin amount in tealeaf: 4519 ng/g
tea; 100 L/tan once a month from 210 days before harvest, sum of the individual polyphenols
  Total amount of polyphenol in tealeaf: 67248 ng/g
tea; 100 L/tan once a month, versus 0 ppm control
  ALA/control ratio of total amount of polyphenol in tealeaf: 1.1
pear; [2]
  Apigenin amount in pear: 95 ng/g
  Caffeic acid amount in pear: 8400 ng/g
  Chlorogenic acid amount in pear: 1819 ng/g
  Ferulic acid amount in pear: 12456 ng/g
  Hesperetin amount in pear: 81 ng/g
  Isorhamnetin amount in pear: 567 ng/g
  Kaempferol amount in pear: 18 ng/g
  Luteolin amount in pear: 61 ng/g
  Quercetin amount in pear: 111 ng/g
  Rutin amount in pear: 1595 ng/g
pear; 300 L/tan once a fortnight from 150 days before harvest, sum of the individual polyphenols
  Total amount of polyphenol in pear: 25202 ng/g
pear; 300 L/tan once a fortnight, versus 0 ppm control
  ALA/control ratio of total amount of polyphenol in pear: 2.3
Green soybean; HPLC
  Apigenin amount in green soybean: 11 ng/g
  Caffeic acid amount in green soybean: 0 ng/g
  Chlorogenic acid amount in green soybean: 17 ng/g
  Ferulic acid amount in green soybean: 3963 ng/g
  Hesperetin amount in green soybean: 1841 ng/g
  Isorhamnetin amount in green soybean: 0 ng/g
  Kaempferol amount in green soybean: 0 ng/g
  Luteolin amount in green soybean: 19 ng/g
  Quercetin amount in green soybean: 261 ng/g
  Rutin amount in green soybean: 1032 ng/g
Green soybean; sum of the individual polyphenols
  Total amount of polyphenol in green soybean: 7143 ng/g
Green soybean; versus 0 ppm control
  ALA/control ratio of total amount of polyphenol in green soybean: 1.4

Source: patent publication US20100173780A1, “POLYPHENOL-CONTENT-[…] FOR PLANT” (COSMO OIL CO., LTD., priority 2006, published 2010)
